Consider three compounds from patent US8461184B2, “Sulphur containing pyrazole derivatives as selective cannabinoid CB1 receptor antagonists” (Solvay Pharmaceuticals B.V., priority 2006, dated 2013).

In data set [1] the target is T1, human cannabinoid CB1 receptor (Homo sapiens, UniProt P21554).
T1 construct: expressed in transfected cells; host or cells: Chinese hamster ovary (CHO) cells, membrane preparation
As to the kind of experiment: In vitro affinity for human cannabinoid-CB1 receptors ([3H]CP-55,940 radioligand, CHO cell membranes). Format: binding. The note with it: for CB1/CB2 ratio: CB1/CB2 receptor selectivity ratio from hCB1 and hCB2 Ki; for Ki: human CB1 receptor in CHO cell membranes, [3H]CP-55,940, mean of at least three independent experiments, read-out: hCB1 Ki. How it is done:
In vitro affinity for human cannabinoid-CB1 receptors.
The affinity of the compounds of the invention for cannabinoid CB1 receptors can be determined using membrane preparations of Chinese hamster ovary (CHO) cells in which the human cannabinoid CB1 receptor is stably transfected in conjunction with [^3H]CP-55,940 as radioligand. After incubation of a freshly prepared cell membrane preparation with the [^3H]-ligand, with or without addition of compounds of the invention, separation of bound and free ligand is performed by filtration over glassfiber filters. Radioactivity on the filter is measured by liquid scintillation counting.

The target of a further data set is T2, CB1 receptor (Rattus norvegicus, UniProt P20272).
T2 construct: from tissue; host or cells: whole animal: male normotensive rats (Harlan)
T2 sequence (P20272 whole entry): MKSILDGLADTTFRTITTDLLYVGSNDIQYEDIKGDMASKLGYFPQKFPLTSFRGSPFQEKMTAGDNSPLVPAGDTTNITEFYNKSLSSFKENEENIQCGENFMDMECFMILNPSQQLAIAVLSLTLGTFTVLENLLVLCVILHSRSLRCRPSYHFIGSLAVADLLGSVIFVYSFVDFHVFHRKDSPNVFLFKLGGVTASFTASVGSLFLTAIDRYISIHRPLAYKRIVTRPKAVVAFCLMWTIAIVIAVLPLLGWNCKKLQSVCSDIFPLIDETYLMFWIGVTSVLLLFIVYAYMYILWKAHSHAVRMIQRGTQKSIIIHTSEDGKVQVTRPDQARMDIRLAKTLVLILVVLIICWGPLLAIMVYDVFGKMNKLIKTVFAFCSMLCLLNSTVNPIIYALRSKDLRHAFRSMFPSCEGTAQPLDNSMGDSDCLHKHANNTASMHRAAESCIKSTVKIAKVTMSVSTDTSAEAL
Kind of data set: CP-55,940 induced hypotension in the rat. Type of data set: in vivo. The note with it: read-out: Blood pressure (rat) ED50. As to the method:
Blood pressure was measured, via a cannula inserted into the left carotid artery, by means of a Spectramed DTX-plus pressure transducer (Spectramed B. V., Bilthoven, The Netherlands). […] Heart rate was derived from the pulsatile pressure signal. […] The injection volume was 10 ml/kg.

Data set [2] has as its target T3, human cannabinoid CB2 receptor (Homo sapiens, UniProt P34972).
T3 construct: expressed in transfected cells; host or cells: Chinese hamster ovary (CHO) cells, membrane preparation
Kind of data set: In vitro affinity for human cannabinoid-CB2 receptors ([3H]CP-55,940 radioligand, CHO cell membranes). Type of data set: binding. The note with it: mean of at least three independent experiments, read-out: hCB2 Ki. As to the method:
In vitro affinity for human cannabinoid-CB2 receptors.
The affinity of the compounds of the invention for cannabinoid CB2 receptors can be determined using membrane preparations of Chinese hamster ovary (CHO) cells in which the human cannabinoid CB2 receptor is stably transfected in conjunction with [^3H]CP-55,940 as radioligand. After incubation of a freshly prepared cell membrane preparation with the [^3H]-ligand, with or without addition of compounds of the invention, separation of bound and free ligand is performed by filtration over glassfiber filters. Radioactivity on the filter was measured by liquid scintillation counting.

[3] abbreviates: p.o., antagonism of hypotension induced by CP-55,940 (0.1 mg/kg i.v.), anaesthetized male normotensive rats.

Where two headings read alike, the source gives them in different places. Some results are limits rather than exact numbers.

T3 sequence (P34972 whole entry): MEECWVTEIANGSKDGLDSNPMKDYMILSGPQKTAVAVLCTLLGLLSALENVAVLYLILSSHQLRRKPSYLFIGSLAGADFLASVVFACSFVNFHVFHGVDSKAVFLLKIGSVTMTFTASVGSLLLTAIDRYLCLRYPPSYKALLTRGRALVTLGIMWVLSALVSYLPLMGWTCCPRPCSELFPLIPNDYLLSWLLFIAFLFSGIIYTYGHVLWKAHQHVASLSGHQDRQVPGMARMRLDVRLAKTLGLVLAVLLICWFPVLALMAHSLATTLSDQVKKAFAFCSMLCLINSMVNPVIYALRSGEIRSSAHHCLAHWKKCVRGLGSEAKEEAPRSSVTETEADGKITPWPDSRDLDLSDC
T1 sequence (P21554 whole entry): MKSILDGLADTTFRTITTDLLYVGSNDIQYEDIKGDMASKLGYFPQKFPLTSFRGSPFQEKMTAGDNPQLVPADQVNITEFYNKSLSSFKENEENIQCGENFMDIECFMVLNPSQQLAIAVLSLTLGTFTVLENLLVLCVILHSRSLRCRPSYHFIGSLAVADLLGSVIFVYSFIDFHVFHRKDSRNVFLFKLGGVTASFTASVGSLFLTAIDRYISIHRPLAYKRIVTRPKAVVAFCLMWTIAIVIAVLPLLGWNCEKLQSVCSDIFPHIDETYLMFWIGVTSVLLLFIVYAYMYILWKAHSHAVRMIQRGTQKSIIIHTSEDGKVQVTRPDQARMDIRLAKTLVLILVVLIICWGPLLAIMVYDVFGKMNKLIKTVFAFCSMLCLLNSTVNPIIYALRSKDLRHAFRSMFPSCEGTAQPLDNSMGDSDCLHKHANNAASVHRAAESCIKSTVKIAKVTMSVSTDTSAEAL

For orientation: Ki means a measure of affinity in units of concentration, obtained from inhibition or displacement. Usually melting point stands for the temperature, or range, at which the solid turns liquid. As a reminder, the ED50 is the midpoint of the dose-response relation. The compound `CSc1c(C(=O)NN2CCCCC2)nn(-c2ccc(Cl)cc2Cl)c1-c1ccc(Cl)cc1` [Comp. 1, 5-(4-Chlorophenyl)-1-(2,4-dichlorophenyl)-4-methylsulfanyl-N-(piperidin-1-yl)-1H-pyrazole-3-carboxamide] yielded a melting point of 172.4 to 174.5 °C. Moreover, in data set [1], the CB1/CB2 ratio was 67 and the Ki was 10 nM. Also, the ED50 on CB1 receptor was 1.5 mg/kg. Besides, in data set [2], the Ki was 668 nM.
For `CSc1c(C(=O)NN2CCCC2)nn(-c2ccc(Cl)cc2Cl)c1-c1ccc(Cl)cc1` [Comp. 2, 5-(4-Chlorophenyl)-1-(2,4-dichlorophenyl)-4-methylsulfanyl-N-(pyrrolidin-1-yl)-1H-pyrazole-3-carboxamide], in data set [1], the CB1/CB2 ratio is on record as more than 34 and the Ki was less than 10 nM. Also, the ED50 on CB1 receptor (setting [3]) was 1.9 mg/kg. Further, the Ki in data set [2] turned out to be 340 nM.
The corresponding values for `CSc1c(C(=O)NN2CCCCCC2)nn(-c2ccc(Cl)cc2Cl)c1-c1ccc(Cl)cc1` [Comp. 3, 5-(4-Chlorophenyl)-1-(2,4-dichlorophenyl)-4-methylsulfanyl-N-(azepan-1-yl)-1H-pyrazole-3-carboxamide] are 25, 20 nM, 3.1 mg/kg and 500 nM.
